Measured values: US7402597B2, “Activator of peroxisome proliferator-activated receptor δ” (Nippon Chemiphar Co., Ltd, priority 2001, dated 2008)
Where two headings read alike, the source gives them in different places.

Tests used:
PPARγ = target: T1, PPARγ (Homo sapiens, UniProt P37231); assay: PPARγ transactivation activity (GAL4-hPPARγ LBD luciferase reporter in CV-1 cells); type: cell-based; settings: for Relative PPARγ transactivation activity (γ): test compound 10^-6 M, 40 hours, CV-1 cells, 100% = 10^-5 M Rosiglitazone, 0% = DMSO (0.1%)
T1 construct: Receptor expression plasmid (GAL4-hPPARα, LBD GAL4-hPPARγ LBD, GAL4-hPPARδ LBD); expressed in transfected cells; host or cells: CV-1 cells
T1 sequence (P37231 238-503 limits assumed): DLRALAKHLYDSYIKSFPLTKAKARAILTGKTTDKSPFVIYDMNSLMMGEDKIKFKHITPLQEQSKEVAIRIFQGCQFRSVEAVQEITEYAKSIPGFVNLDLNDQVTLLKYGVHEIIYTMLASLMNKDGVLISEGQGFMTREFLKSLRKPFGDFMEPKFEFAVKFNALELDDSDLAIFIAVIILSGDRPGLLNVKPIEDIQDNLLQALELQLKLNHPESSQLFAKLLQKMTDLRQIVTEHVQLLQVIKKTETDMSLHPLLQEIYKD
Description: (§1) (1) Measurement of PPARα, γ, δ transactivation activity
(§2) CV-1 cells were obtained from Tohoku University Aging Medical Laboratory, Medical Cell Collection Center. All test compounds were dissolved in dimethylsulfoxide (DMSO). Final concentration of DMSO was 0.1%.
(§3) CV-1 cells were seeded in 24 well culture plates at 2×10^5 cells per well, and cultured for 24 hours OPTI-MEM I Reduced Serum Medium (Life Technologies, 500 μL/well) containing 4%-fetal bovine serum (FBS). After washing with OPTI-MEM, transfection mixture (250 μL/well) containing 0.03 μg of GAL4-hPPARδ LBD, 0.25 μg of UASx4-TK-LUC, 0.35 μg of βGAL, and 2 μL of lipofection reagent, DMRIE-C (Life Technologies) were added. The cells were incubated for 5 hours at 37° C. […]
(§4) The culture medium was removed and the cells were washed with PBS twice. A solubilizing buffer (100 μL/well) containing 25 mM Tris-PO4 (pH 7.8), 15%v/v glycerol, 2% CHAPS, 1% Lecithin, 1% BSA, 4 mM EGTA (pH 8.0), 8 mM MgCl2, 1 mM DTT was added. After the incubation for 10 minutes at room temperature, a portion (20 μL) of the solution was transferred into a 96-well plate. Subsequently, 100 μL of luciferase substrate solution (Piccagene: available from Nippon Gene Co., Ltd.) was added, and a luminous intensity per one second (luciferase activity) was measured using a microluminoreader (Type MLR-100, Corona Electrics Co., Ltd.). Each luciferase activity was corrected by the transfection efficiency which was calculated from β-galactosidase activity. The assay method of β-galactosidase activity was as follows: A portion (50 μL) of the solubilized sample was transferred into another 96-well plate; 100 μL of ONPG (2-nitrophenyl-β-galactopyranoside) solution was added and incubated for 5 minutes at room temperature. 50 μL of a reaction stopping solution (1M sodium carbonate solution) was added. Then the absorbance at 414 nm was measured.

PPARδ = target: T2, PPARδ (Homo sapiens, UniProt Q03181); assay: PPARδ transactivation activity (GAL4-hPPARδ LBD luciferase reporter in CV-1 cells); type: cell-based; settings: for PPARδ transactivation activity (statement in words on Table 25) / Relative PPARδ transactivation activity (δ): CV-1 cells, test compound 10^-6 M; for PPARδ transactivation activity (statement in words on Table 25): control 10^-4 M L-165041 = 100%; for Relative PPARδ transactivation activity (δ): 40 hours, 100% = 10^-4 M L-165041, 0% = DMSO (0.1%)
T2 construct: transfection mixture (250 μL/well) containing 0.03 μg of GAL4-hPPARδ LBD; expressed in transfected cells; host or cells: CV-1 cells
T2 sequence (Q03181 211-439 limits assumed): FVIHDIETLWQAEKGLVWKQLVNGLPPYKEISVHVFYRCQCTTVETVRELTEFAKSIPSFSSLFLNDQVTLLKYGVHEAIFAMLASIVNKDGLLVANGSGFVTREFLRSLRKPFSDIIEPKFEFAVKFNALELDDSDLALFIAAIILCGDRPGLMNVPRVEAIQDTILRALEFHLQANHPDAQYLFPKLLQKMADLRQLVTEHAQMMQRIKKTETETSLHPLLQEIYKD
Description: PPARδ transactivation activity of the compound of the invention was measured in the manner described below.
A receptor expression plasmid (GAL4-hPPARδ LBD), a reporter plasmid (UASx4-TK-LUC) and a β-galactosidase (β-GAL) expression plasmid were transfected into CV-1 cells by using DMRIE-C reagent. Subsequently, the cells were incubated for 40 hours in the presence of a compound of the invention, and then the luciferase and β-GAL activities of the cell lysate were assayed.
as §1, §2, §3, §4

PPARα = target: T3, PPARα (Homo sapiens, UniProt Q07869); assay: PPARα transactivation activity (GAL4-hPPARα LBD luciferase reporter in CV-1 cells); type: cell-based; settings: for Relative PPARα transactivation activity (α): test compound 10^-6 M, 40 hours, CV-1 cells, 100% = 10^-4 M, 0% = DMSO (0.1%); for Relative activity for PPAR transactivation, α: compounds at 10^-7 M
T3 construct: Receptor expression plasmid (GAL4-hPPARα, LBD GAL4-hPPARγ LBD, GAL4-hPPARδ LBD); expressed in transfected cells; host or cells: CV-1 cells
T3 sequence (Q07869 239-466 limits assumed): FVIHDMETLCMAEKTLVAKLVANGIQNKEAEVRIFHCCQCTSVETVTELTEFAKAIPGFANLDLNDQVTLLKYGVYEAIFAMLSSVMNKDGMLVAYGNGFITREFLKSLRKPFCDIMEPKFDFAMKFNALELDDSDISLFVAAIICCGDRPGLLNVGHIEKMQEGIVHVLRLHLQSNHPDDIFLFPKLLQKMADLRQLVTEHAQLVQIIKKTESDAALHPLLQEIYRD
Description: as §1
PPARα, γ, δ transactivation activity of each compound [Examples 1-4] was measured in the manner described below.
as §2
Receptor expression plasmid (GAL4-hPPARα, LBD GAL4-hPPARγ LBD, GAL4-hPPARδ LBD), Reporter plasmid (UASx4-TK-LUC), and β-galactosidase expression plasmid (βGAL) similar to Kliewer, S. A., et al., ((1992) Nature, 358:771-774) were used.
CV-1 cells were seeded in 24 well culture plates at 2×10^5 cells per well, and cultured for 24 hours OPTI-MEM I Reduced Serum Medium (Life Technologies, 500 μL/well) containing 4%-fetal bovine serum (FBS). After washing with OPTI-MEM, transfection mixture (250 μL/well) containing 0.03 μg of GAL4-hPPARδ LBD, 0.25 μg of UASx4-TK-LUC, 0.35 μg of βGAL, and 2 μL of lipofection reagent, DMRIE-C (Life Technologies) were added. The cells were incubated for 5 hours at 37° C.
The cells were washed and incubated for 40 hours in the presence of the test compound (final concentration was 10^−6M).
as §4
A relative PPAR activity was calculated as follows: 0% (luciferase activity of cells treated with DMSO (0.1%) alone), 100% (luciferase activity of cells treated with a control (PPARα: 10^−4 M […], PPARγ: 10^−5 M Rosiglitazone, PPARδ: 10^−4 M L-165041)).
PPAR transactivation activities of the compounds of Examples 5-10 were assayed in the same manner as described in Example 11.
Relative activities for PPAR transactivation were shown.
Each value represents as % of control. Cells were cultured in the presence of compounds at 10^−7 M except that PPARδ of Examples 5, 6 and 7 were assayed at 10^−8 M.

db/db mice = system: db/db mice
Description: HDL cholesterol elevating effect was measured by using db/db mice, which are hereditary obesity mice. The db/db mice (10 weeks old) were divided into groups based on serum HDL cholesterol levels. […] Mice of the control group (to which no agent was administered) were orally given 1% methyl cellulose solution. After 16 hours from the final administration, blood sample was collected, and serum HDL cholesterol level was measured. HDL cholesterol was separated by electrophoresis on agarose gels (Chol/Trig Combo, Helena Laboratories). Serum total cholesterol levels were measured enzymaticallly using a kit (Pure Auto, Daiichi Chemicals) by an automatic analyzer (7060E type, Hitachi Ltd.). HDL cholesterol levels were calculated from total cholesterol levels and HDL cholesterol/total cholesterol ratios.
Each value represents as % of the control group.

[1] = compounds at 10^-8 M (Examples 5, 6 and 7)

Structure (SMILES)	Relative PPARγ transactivation activity (γ) (PPARγ) [%]	Relative PPARδ transactivation activity (δ) (PPARδ) [%]	Relative PPARα transactivation activity (α) (PPARα) [%]	Relative activity for PPAR transactivation, γ (PPARγ; compounds at 10^-7 M)	Relative activity for PPAR transactivation, δ (PPARδ; [1])	Relative activity for PPAR transactivation, α (PPARα)	Relative activity for PPAR transactivation, δ (PPARδ; compounds at 10^-7 M)	also measured
C=CCc1c(OCC(=O)O)ccc2c(CCc3nc(-c4ccc(Cl)cc4Cl)oc3C(C)C)noc12 [Example 1, [[7-Allyl-3-[2-[2-(2,4-dichlorophenyl)-5-isopropyl-4-oxazolyl]ethyl]-1,2-benzisoxazol-6-yl]oxy]acetic acid]	9.4	76.9	0.1	–	–	–	–	PPARδ transactivation activity (statement in words on Table 25) (PPARδ): selective PPARδ transactivation activity
C=CCc1c(OC(C)(C)C(=O)O)ccc2c(CCc3nc(-c4ccc(Cl)cc4Cl)oc3C(C)C)noc12 [Example 2, 2-[[7-Allyl-3-[2-[2-(2,4-dichlorophenyl)-5-isopropyl-4-oxazolyl]ethyl]-1,2-benzisoxazol-6-yl]oxy]-2-methylpropionic acid]	3.2	67.8	8.0	–	–	–	–	PPARδ transactivation activity (statement in words on Table 25) (PPARδ): selective PPARδ transactivation activity
C=CCc1c(OC(C)(C)C(=O)O)ccc2c(CCc3sc(-c4ccc(C(F)(F)F)cc4)nc3C(C)C)noc12 [Example 4, 2-[[7-Allyl-3-[2-[2-[(4-trifluoromethyl)phenyl]-4-isopropyl-5-thiazolyl]ethyl]-1,2-benzisoxazol-6-yl]oxy]-2-methylpropionic acid]	9.5	59.9	85.0	–	–	–	–	–
Cc1cc2c(CCc3sc(-c4ccc(C(F)(F)F)cc4)nc3C(C)C)noc2cc1OCC(=O)O [Example 5, [3-[2-[4-Isopropyl-2-(4-trifluoromethyl)phenyl-5-thiazolyl]-ethyl]-5-methyl-1,2-benzisoxazol-6-yl]oxyacetic acid]	–	–	–	0 % of control	75 % of control	0 % of control	–	–
Cc1cc2c(CCc3sc(-c4ccc(C(F)(F)F)cc4)nc3C(C)C)noc2cc1OC(C)(C)C(=O)O [Example 6, 2-[[3-[2-[4-Isopropyl-2-(4-trifluoromethyl)phenyl-5-thiazolyl]ethyl]-5-methyl-1,2-benzisoxazol-6-yl]oxy]-2-methylpropionic acid]	–	–	–	–	54 % of control	0 % of control	–	Ratio of increasing HDL cholesterol (db/db mice; 10 mg/kg b.i.d. orally for one week, serum 16 hours after final administration): 164 % to control; HDL cholesterol elevating effect (statement in words on Table 27) (db/db mice; oral, twice daily for one week, serum HDL cholesterol 16 hours after final administration): potent HDL cholesterol elevating effect; Relative activity for PPAR transactivation, γ (PPARγ): 0 % of control
Cc1cc2c(CCc3sc(-c4ccc(C(F)(F)F)cc4)nc3C(C)C)noc2cc1SCC(=O)O [Example 7, [3-[2-[4-Isopropyl-2-(4-trifluoromethyl)phenyl-5-thiazolyl]ethyl]-5-methyl-1,2-benzisoxazol-6-yl]thioacetic acid]	–	–	–	0 % of control	63 % of control	0 % of control	–	–
Cc1cc2c(CCc3sc(-c4ccc(C(F)(F)F)cc4)nc3C(C)C)noc2cc1NCC(=O)O [Example 8, [3-[2-[4-Isopropyl-2-(4-trifluoromethyl)phenyl-5-thiazolyl]ethyl]-5-methyl-1,2-benzisoxazol-6-yl]aminoacetic acid]	–	–	–	0 % of control	–	0 % of control	61 % of control	–
Cc1cc2c(CCc3nc(-c4ccc(Cl)cc4Cl)oc3C(C)C)noc2cc1OCC(=O)O [Example 9, (3-[2-[2-(2,4-Dichlorophenyl)-5-isopropyl-4-oxazolyl]ethyl]-5-methyl-1,2-benzisoxazol-6-yl]oxyacetic acid]	–	–	–	2 % of control	–	0 % of control	86 % of control	–
Cc1cc2c(CCc3sc(-c4ccc(C(F)(F)F)cc4)nc3C(C)C)noc2cc1OC(C)(C)C(=O)OCCN1CCCCC1.Cl [Example 10, 2-[[3-[2-[4-Isopropyl-2-(4-trifluoromethyl)phenyl-5-thiazolyl]ethyl]-5-methyl-1,2-benzisoxazol-6-yl]oxy]-2-methylpropionic acid 2-piperidin-1-yl ethyl ester hydrochloride]	–	–	–	0 % of control	–	3 % of control	75 % of control	–
